From ChEMBL document CHEMBL1177800, “Inhibition of ABCG2-mediated drug efflux by naphthopyrones from marine crinoids” (Bioorg Med Chem Lett, 2010) come the findings set out here.

In series [1] the target is T1, Broad substrate specificity ATP-binding cassette transporter ABCG2 (Homo sapiens, UniProt Q9UNQ0).
T1 sequence (Q9UNQ0 whole entry): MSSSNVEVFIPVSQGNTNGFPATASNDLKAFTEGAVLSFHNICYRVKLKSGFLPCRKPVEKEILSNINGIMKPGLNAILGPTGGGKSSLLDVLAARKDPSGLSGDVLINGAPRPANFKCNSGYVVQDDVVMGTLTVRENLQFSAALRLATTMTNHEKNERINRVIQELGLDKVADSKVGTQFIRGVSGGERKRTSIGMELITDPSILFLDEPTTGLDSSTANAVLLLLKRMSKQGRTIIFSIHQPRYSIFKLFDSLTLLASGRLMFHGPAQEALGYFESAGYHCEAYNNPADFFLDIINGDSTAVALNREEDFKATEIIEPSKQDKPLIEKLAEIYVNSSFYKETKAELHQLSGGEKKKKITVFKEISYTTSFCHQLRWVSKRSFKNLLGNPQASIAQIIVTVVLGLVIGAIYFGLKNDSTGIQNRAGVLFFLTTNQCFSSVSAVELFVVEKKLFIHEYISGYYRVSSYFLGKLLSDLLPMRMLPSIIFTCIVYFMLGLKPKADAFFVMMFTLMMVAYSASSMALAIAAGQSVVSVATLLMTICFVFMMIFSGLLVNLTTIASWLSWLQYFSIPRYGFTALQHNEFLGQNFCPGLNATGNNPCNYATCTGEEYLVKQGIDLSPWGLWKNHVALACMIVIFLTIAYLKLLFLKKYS
In words: Inhibition of ABCG2 expressed in human NCI-H460 cells assessed as inhibition of PhA accumulation relative to fumitremorgin C. In kind it is cell-based.

Series [2] deals with T1, Broad substrate specificity ATP-binding cassette transporter ABCG2. As to the kind of experiment: Inhibition of ABCG2-mediated drug efflux expressed in human NCI-H460 cells. In kind it is cell-based.

`CCCc1cc(=O)c2c(O)c3c(O)cc(OC)cc3c(OC)c2o1`: in series [1], the “inhibition (INH)” value is given as “Not Active”. The IC50 result in series [2] (nci-h460) is on record as “Not Active”.
In the case of `CCCc1cc(=O)c2c(OC)cc3cc(O)cc(OC)c3c2o1`, the “inhibition (INH)” value in series [1] is given as 46.3%. Further, the IC50 in series [2] (read-out: IC50) was determined as 5.9 µM.
For `COc1c(O)c2c(=O)cc(C)oc2c2c(OC)cc(O)cc12`, in series [1], the “inhibition (INH)” value was determined as 59.3%. Moreover, the IC50 in series [2] (read-out: IC50) came to 11.9 µM.
With `COc1c(OC)c2c(=O)cc(C)oc2c2c(OC)cc(O)cc12`, the “inhibition (INH)” value in series [1] is on record as “Not Active”. In series [2] (nci-h460), the half-maximal inhibitory concentration (IC50) entry is listed as “Not Active”.
Regarding `COc1cc(O)cc2cc(O)c3c(=O)cc(C)oc3c12`, the “inhibition (INH)” value in series [1] was determined as 31%. Moreover, in series [2] (read-out: IC50), the IC50 is 12.8 µM.
As to `CCCc1cc(=O)c2c(O)c3c(OC)cc(O)cc3cc2o1`, the “inhibition (INH)” value in series [1] is recorded as “Not Active”. In series [2] (nci-h460), the IC50 entry is “Not Active”.
With `CCCc1cc(=O)c2c(O)cc3cc(O)cc(OC)c3c2o1` [COMAPARVIN], in series [1], the “inhibition (INH)” value was 54.3%. Besides, the IC50 in series [2] (read-out: IC50) came out at 9 µM.
The matching figures for `CCCc1cc(=O)c2c(OC)c(OC)c3cc(O)cc(OC)c3c2o1`: 44% and 16.6 µM.
On to `COc1cc(O)c2c(O)c3c(=O)cc(C)oc3c(OC)c2c1`, for which the “inhibition (INH)” value in series [1] is recorded as “Not Active”. Moreover, the IC50 entry in series [2] (nci-h460) is given as “Not Active”.
Consider `CCCc1cc(=O)c2c(O)c(OC)c3cc(O)cc(OC)c3c2o1`, for which the “inhibition (INH)” value in series [1] came to 27.5%. For the same compound, the IC50 in series [2] (read-out: IC50) is > 20 µM.
On to `COc1cc(O)cc2cc3oc(C)cc(=O)c3c(O)c12`, for which, in series [1], the “inhibition (INH)” value is listed as “Not Active”. Further, the half-inhibitory concentration (IC50) result in series [2] (nci-h460) is recorded as “Not Active”.
